Reference: patent publication US20190380954A1, “Bone Regeneration Agent” (Kao Corporation, priority 2017, published 2019)

Key:
[1] = test system: alveolar bone of rats with ligature-induced periodontitis; conditions: niacin 25 mM in PBS, 100 μL dropped onto right and left second molars twice a day for 4 weeks after ligature removal; compared to PBS group; base line group 0%, Sham group 100%; Tukey, 5%
Method: Twenty-eight 8-week-old male Wister Rats were purchased from Japan SLC, Inc., and the rats were acclimated for one week. Subsequently, the body weights of the rats were measured, and the rats were assigned into four groups (base line group, Sham group, PBS group, and niacin group) such that the average body weights of the groups would be even.
Under isoflurane inhalation anesthesia, No. 3-0 nylon sutures (manufactured by Akiyama Seisakusho Co., Ltd.) were ligated to the right and left second molars in the upper jaw of the rats of the base line group, PBS group, and niacin group to induce periodontitis, and the rats of the respective groups were reared for two weeks. […]
After rearing for two weeks, the ligatures (No. 3-0 nylon sutures described above) were excised from the rats of the PBS group and the niacin group. For the base line group, the rats were euthanized by bleeding from the abdominal aorta under isoflurane inhalation anesthesia, and the alveolar bone resorption depths of the respective groups were measured by the following method. […]
The alveolar bone regeneration amount of the base line group was designated as 0%, and the alveolar bone regeneration amount of the Sham group was designated as 100%. Thus, the alveolar bone regeneration amounts of the PBS group and the niacin group were calculated from the average alveolar bone resorption depth thus calculated. […]

gums = conditions: niacin or an ester compound thereof, intraoral composition; cited from earlier work
[2] = test system: gums / periodontal pocket; conditions: blood circulation enhancers such as vitamin E; cited from earlier work
[3] = test system: periodontal disease model rat; conditions: suppression of alveolar bone resorption is not reported; cited from earlier work

Row | Compound | regeneration amount of the alveolar bone [1] | blood circulation in the gums (gums) | Gingival index (swelling of gums) [2] | Periodontal probing depth (depth of periodontal pocket, reflecting extent of alveolar bone resorption) [2] | inflammatory response [3]
1 | O=C(O)c1cccnc1 [niacin, niacin (nicotinic acid)] | significantly increased | promotes blood circulation in the gums | – | – | –
2 | vitamin E | – | – | do not improve | do not improve | suppresses inflammatory response
